{"source": "patent US5532229A", "about": "“Topical administration of vitamin D to mammals” (priority 1994, dated 1996)", "key": {"[1]": {"test": "Experiment 3: serum calcium, phosphate, alkaline phosphatase and body weight after 6 weeks", "assay_type": "in vivo, Male Wistar rats", "details": "for Serum Alkaline phosphatase: 6 weeks", "description": "Male, Wistar rats were obtained at 120-130 g, and placed on a 0.01% calcium, 0.7% phosphate diet that was vitamin D deficient (Teklad Test Diets, Madison, WI) this was for one week to help deplete vitamin D stores. For the next three weeks the rats were fed the vitamin D-deficient diet, but with normal, 0.5%, calcium. Starting with these 3 weeks, the rats were divided into four vitamin D3 -treatment groups, initially, nine rats per group: group a) supplemented once weekly with 0.6 μg vitamin D3 (average dose, 0.08 μg/day); group b) supplemented once every second day with vitamin D3 to provide 2 nmol/day, i.e., each dose was 4 nmol of vitamin D3; group c) supplemented once every second day with vitamin D3 to provide 8 μg/day. The preceding groups all received the vitamin D3 through an infant-feeding tube inserted through the mouth into the stomach. One group, d), received its vitamin D3 in the ethanol applied onto a shaved 2 cm×2 cm patch of skin on the back, this was done every second day to provide vitamin D3 at 8 μg/day. The volume of each dose of vitamin D3 given was adjusted so that the stated doses are per 250 g body weight. Over a second 3-week period while maintaining the described vitamin D3 dosing regimens, diet calcium content was changed weekly and blood sampling was started (that is, changes in calcium and sampling was from weeks 4 to 6, inclusive, of receiving the appropriate vitamin D3 supplement). Diet calcium was first dropped to 0.01% then raised to 1.5% and finally dropped again to 0.01%. For each week of dietary calcium manipulation, blood was obtained at day zero (the day of but just prior to the change in calcium), and days 1, 3, and 7 after the change. During the first week, 0.5 mL of blood was taken on the first two of these days and anticoagulated with heparin, the cells were isolated and resuspended in normal rat plasma and reinjected into the femoral vein. […] For the subsequent samplings, only 0.2-0.3 mL of blood was taken by bleeding from the tail into precalibrated microcentrifuge tubes. In this way, the bleeds prior to sacrifice removed a net total of less than 2 mL of blood, that is, less than or equal to 10% of the blood volume. Samples of daytime urine was collected into microfuge tubes that were fastened to the cones of metabolic collection funnels designed to hang under the wire cages. The cages and cones were rinsed with 0.1 mol/L hydrochloric acid prior to each collection. To eliminate contamination of the urine with diet, stool or water, the rats were placed into these separate cages only during the urine-collection period, until about 1 mL urine was present in the microfuge tube, this was typically within 5 min to one hour. […]"}, "[2]": {"test": "Experiment 2: uptake of [14C]-vitamin D3 tracer into serum and conversion to [14C]-25(OH)D3", "assay_type": "in vivo, Male Wistar rats", "details": "tracer added to last day's dose", "description": "One dose of [carbon-14]-labelled vitamin D3 was given at the time of the last of 14 daily doses of nonradioactive vitamin D3. The graphs show the uptake and metabolism of one [^14 C]-vitamin D3 dose during the course of gastric or dermal supplementation with vitamin D3. The tracer was given in addition to the usual, 8 μg/day vitamin D3 dose, and by the same route. Radioactivity in serum was isolated by chromatography to measure that which elutes as vitamin D3, or as […], Each point is the mean of results from six rats;\nUptake of radioactive vitamin D3 from skin or gut during the longer term treatment with vitamin D3 at 20 nmol/day.\nThe previous experiment 1 involved only one acute dose of a minute, tracer amount of vitamin D3. It remained possible that dermal application could not deliver a larger, more nutritionally relevant amount of vitamin D3. This experiment 2 looked at what happens when vitamin D3 is given during the course of daily treatment with a moderate amount of vitamin D3.\nAfter 30 days, the rats were divided into three groups of 6: one group continued with no supplement, one group was given daily vitamin D3 supplement, 8 μg/day either by gastric tube, the third received the supplement by application to the skin in 50 μL ethanol. Vitamin D3 was given for 3 wk. The day before the rats were killed, the vitamin D3 dose was supplemented with [^14 C]-labelled vitamin D3, 915,000 cpm per rat. Blood was obtained from the tail of each rat at 3 h, 9 h, and by heart puncture when the rats were anesthetized for killing, 24 h after giving the tracer. The blood was extracted and chromatographed to distinguish [^14 C]-vitamin D3 from the [^14 C]-25(OH)D3generated from it. Radioactivity was also measured in the liver, kidney, and adipose tissue. Serum nonradioactive 25(OH)D3 was also measured."}, "[3]": {"details": "cited from earlier work"}, "[4]": {"details": "14 days; cited from earlier work"}, "[5]": {"details": "50 μg in 10 μL 95% ethanol, shaved skin of rats; cited from earlier work"}, "[6]": {"test": "Experiment 4: short-term serum 25(OH)D3 response to increasing vitamin D3 doses", "assay_type": "in vivo, rats", "details": "first 48 hours", "description": "Each point represents the mean ±SEM of 7 normal, 250-g rats;\nToxicity: Short-term responses to increasing doses of vitamin D3 given dermally or by gastric tube.\nTo compare the efficacy of increasing doses of vitamin D3 in the short term. A fatal oral vitamin D3 dose is 14 days of 2600 μg/day (Sheppard RM and DeLuca HF, Arch Biochem Biophys 1980; 202: 43-55). The present experiment was designed to compare effects of doses up to this level, given by gastric tube or dermally."}}, "note": "Entries after “also recorded” stand apart in the source; their conditions may differ.", "data": [{"smiles": "C=C1CC[C@H](O)C/C1=C/C=C1\\CCC[C@]2(C)[C@@H]([C@H](C)CCCC(C)C)CC[C@@H]12", "note": "[vitamin D3]", "values": [{"measurement": "Serum Alkaline phosphatase", "setting": "[1]; 0.08 μg/day diet", "value": 119, "unit": "U/L"}, {"measurement": "Serum Alkaline phosphatase", "setting": "[1]; 0.8 μg/day G1 (gastric)", "value": 151, "unit": "U/L"}, {"measurement": "Serum Alkaline phosphatase", "setting": "[1]; 8 μg/day G1 (gastric)", "value": 147, "unit": "U/L"}, {"measurement": "Serum Alkaline phosphatase", "setting": "[1]; 8 μg/day dermal", "value": 152, "unit": "U/L"}, {"measurement": "body weight difference between groups", "setting": "[1]; end of experiment 3", "value": "no weight differences between the groups"}, {"measurement": "rate of uptake into circulation, dermal vs gastric", "setting": "[2]", "value": "more slowly when given via the dermal route"}, {"measurement": "solubility in water", "setting": "[3]", "value": "not soluble in water"}, {"measurement": "fatal oral dose", "setting": "[4]", "value": 2600, "unit": "µg/day"}, {"measurement": "response (intestinal calcium transport and serum calcium)", "setting": "[5]", "value": "no response was detected"}, {"measurement": "serum 25(OH)D3 vs dose", "setting": "[6]; dermal, 800 to 2600 μg", "value": "does not parallel the vitamin D3 dose beyond the 800 μg (2000 nmol)/day dose; also recorded: striking plateau"}, {"measurement": "serum 25(OH)D3 vs dose", "setting": "[6]; gastric, up to 2600 μg", "value": "parallels the vitamin D3 dose; also recorded: increased in a direct parallel to the dose"}]}]}
